How the values were obtained:
Recombinant IKKα = biological target: T1, Recombinant IKKα (Homo sapiens, UniProt O15111); assay: DELFIA IKKα kinase assay (apparent Ki, Cheng-Prusoff); type: biochemical
T1 construct: purchased Millipore, Dundee, UK
T1 sequence (O15111 1-745): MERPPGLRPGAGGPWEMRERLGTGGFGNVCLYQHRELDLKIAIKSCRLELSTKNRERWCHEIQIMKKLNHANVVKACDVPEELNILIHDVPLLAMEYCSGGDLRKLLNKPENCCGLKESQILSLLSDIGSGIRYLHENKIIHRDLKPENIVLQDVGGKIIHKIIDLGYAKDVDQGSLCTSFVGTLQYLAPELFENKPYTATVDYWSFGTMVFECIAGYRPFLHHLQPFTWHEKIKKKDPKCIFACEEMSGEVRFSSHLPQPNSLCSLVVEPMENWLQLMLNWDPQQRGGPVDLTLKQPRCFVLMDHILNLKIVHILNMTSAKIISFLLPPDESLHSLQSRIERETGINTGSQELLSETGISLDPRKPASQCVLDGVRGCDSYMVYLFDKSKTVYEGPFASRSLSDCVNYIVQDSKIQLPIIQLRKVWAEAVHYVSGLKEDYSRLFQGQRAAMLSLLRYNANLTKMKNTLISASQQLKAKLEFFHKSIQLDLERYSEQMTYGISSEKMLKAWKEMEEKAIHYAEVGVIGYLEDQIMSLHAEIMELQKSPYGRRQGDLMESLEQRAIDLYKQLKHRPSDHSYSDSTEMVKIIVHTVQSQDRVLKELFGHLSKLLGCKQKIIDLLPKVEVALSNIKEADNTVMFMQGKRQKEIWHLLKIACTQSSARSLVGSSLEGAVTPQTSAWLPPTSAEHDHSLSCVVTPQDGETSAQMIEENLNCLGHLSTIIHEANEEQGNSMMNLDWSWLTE
Procedure, shortened: (§1)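 Recombinant IKKα or IKKβ (37 nM) with 0.375 μM biotinylated IκB-α (Ser32) peptide and 40 μM ATP in 40 mM Tris-HCl pH 7.5, 20 mM MgCl2, 60 min at 30° C. Phospho-substrate captured on streptavidin and detected by anti-phospho-IκB-α plus europium anti-mouse IgG time-resolved fluorescence; apparent Ki via Cheng-Prusoff.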

Recombinant IKKβ = biological target: T2, Recombinant IKKβ (Homo sapiens, UniProt O14920); assay: DELFIA IKKβ kinase assay (apparent Ki, Cheng-Prusoff); type: biochemical
T2 construct: purchased Millipore, Dundee, UK
T2 sequence (O14920 1-756): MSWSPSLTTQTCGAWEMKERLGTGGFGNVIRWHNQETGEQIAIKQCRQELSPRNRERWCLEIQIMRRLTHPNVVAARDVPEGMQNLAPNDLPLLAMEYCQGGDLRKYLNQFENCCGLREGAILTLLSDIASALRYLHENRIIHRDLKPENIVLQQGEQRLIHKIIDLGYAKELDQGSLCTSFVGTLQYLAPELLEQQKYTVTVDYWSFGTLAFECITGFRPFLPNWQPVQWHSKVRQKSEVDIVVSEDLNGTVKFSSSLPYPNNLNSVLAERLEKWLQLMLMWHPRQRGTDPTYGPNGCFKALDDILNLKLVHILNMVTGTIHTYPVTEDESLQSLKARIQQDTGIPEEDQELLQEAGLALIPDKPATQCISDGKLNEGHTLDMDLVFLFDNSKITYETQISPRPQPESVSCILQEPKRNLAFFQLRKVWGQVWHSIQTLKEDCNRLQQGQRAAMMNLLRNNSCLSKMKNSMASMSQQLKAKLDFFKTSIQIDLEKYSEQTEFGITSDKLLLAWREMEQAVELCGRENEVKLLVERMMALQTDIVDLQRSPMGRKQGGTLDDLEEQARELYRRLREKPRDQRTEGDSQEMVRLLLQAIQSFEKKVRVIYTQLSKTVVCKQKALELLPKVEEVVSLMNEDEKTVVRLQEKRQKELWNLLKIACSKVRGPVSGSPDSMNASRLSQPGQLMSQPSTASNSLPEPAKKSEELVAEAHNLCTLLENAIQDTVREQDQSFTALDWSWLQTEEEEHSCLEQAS
Procedure, shortened: as §1

[1] = DELFIA assay (first line of an example)
[2] = non-italicised figure: DELFIA assay

Row | Ki (Recombinant IKKα; [1]) [µM] | Ki (Recombinant IKKβ; [1]) [µM] | Ki (Recombinant IKKα; [2]) [µM] | Ki (Recombinant IKKβ; [2]) [µM] | SMILES
1 | 0.02 | 1.59 |  |  | CCOC(=O)Nc1cc(-c2cc(C#CC(C)(C)C)c3[nH]nc(N)c3c2)ccn1 [Example 191, Ethyl (4-(3-amino-7-(3,3-dimethylbut-1-yn-1-yl)-1H-indazol-5-yl)pyridin-2-yl)carbamate]
2 |  |  | 0.043 | 0.84 | NC(=O)c1cccc(-c2cc(-c3ccnc(N)c3)cc3c(N)n[nH]c23)c1 [Example 113, 3-(3-Amino-5-(2-aminopyridin-4-yl)-1H-indazol-7-yl)benzamide]
3 |  |  | 0.162 | 1.01 | Nc1cc(-c2cc(-c3cccc(CN4CCOCC4)c3)c3[nH]nc(N)c3c2)ccn1 [Example 116]
4 |  |  | 0.038 | 0.922 | Nc1nccc(-c2ccc3[nH]nc(N)c3c2)c1C#CCCN1CCOCC1 [Example 94, 5-(2-Amino-3-(4-morpholinobut-1-yn-1-yl)pyridin-4-yl)-1H-indazol-3-amine]
5 | 0.0098 | 0.083 |  |  | COC(=O)Nc1cc(-c2cc(-c3ccc(O)cc3)c3[nH]nc(N)c3c2)ccn1 [Example 323, Methyl (4-(3-Amino-7-(4-hydroxyphenyl)-1H-indazol-5-yl)pyridin-2-yl)carbamate]
6 |  |  | 0.114 | 1.68 | Nc1cc(-c2cc(-c3cccnc3)c3[nH]nc(N)c3c2)ccn1 [Example 127]
7 |  |  | 0.3 | 4.2 | CCc1ccccc1NC(=O)Nc1cc(-c2ccc3[nH]nc(N)c3c2)ccn1 [Example 67, 1-(4-(3-Amino-1H-indazol-5-yl)pyridin-2-yl)-3-(2-ethylphenyl)urea]
8 | 0.012 | 1.17 |  |  | COC(=O)Nc1cc(-c2cc(C#CC(C)(C)C)c3[nH]nc(N)c3c2)ccn1 [Example 190, Methyl (4-(3-amino-7-(3,3-dimethylbut-1-yn-1-yl)-1H-indazol-5-yl)pyridin-2-yl)carbamate]
9 | 0.001 | 0.111 |  |  | Nc1n[nH]c2ccc(-c3ccnc4[nH]c(Cc5ccccc5)cc34)cc12 [Example 223, 5-(2-Benzyl-1H-pyrrolo[2,3-b]pyridin-4-yl)-1H-indazol-3-amine]
10 |  |  | 0.07 | 4.1 | CCCNC(=O)Nc1cc(-c2ccc3[nH]nc(N)c3c2)ccn1 [Example 37, 1-(4-(3-Amino-1H-indazol-5-yl)pyridin-2-yl)-3-propylurea]
11 |  |  | 0.183 | 0.796 | Nc1cc(-c2cc(-c3ccccc3CO)c3[nH]nc(N)c3c2)ccn1 [Example 125]
12 | 0.082 | 1.47 |  |  | Nc1n[nH]c2c(C#CC3(O)CCCC3)cc(-c3ccnc4[nH]ccc34)cc12 [Example 207, 1-((3-Amino-5-(1H-pyrrolo[2,3-b]pyridin-4-yl)-1H-indazol-7-yl)ethynyl)cyclopentan-1-ol]
13 |  |  | 0.029 | 0.29 | Nc1cc(-c2cc(-c3cccc(CO)c3)c3[nH]nc(N)c3c2)ccn1 [Example 110]
14 |  |  | 0.076 | 0.159 | Nc1n[nH]c2ccc(-c3ccnc(NC(=O)C4CC4)c3)cc12 [Example 33, N-[4-(3-Amino-1H-indazol-5-yl)pyridin-2-yl]cyclopropanecarboxamide]
15 |  |  | 0.012 | 0.1 | Nc1cc(-c2cc(-c3cccc(C=O)c3)c3[nH]nc(N)c3c2)ccn1 [Example 111, 3-(3-Amino-5-(2-aminopyridin-4-yl)-1H-indazol-7-yl)benzaldehyde]
16 |  |  | 0.017 | 0.059 | Nc1ccccc1C#Cc1c(-c2ccc3[nH]nc(N)c3c2)ccnc1N [Example 78, 5-(2-Amino-3-((2-aminophenyl)ethynyl)pyridine-4-yl)-1H-indazol-3-amine]

Row | Ki (Recombinant IKKα; [1]) [µM] | Ki (Recombinant IKKβ; [1]) [µM] | Ki (Recombinant IKKα; [2]) [µM] | Ki (Recombinant IKKβ; [2]) [µM] | SMILES
17 | 0.038 | 0.256 |  |  | Nc1n[nH]c2c(C#CCCCCC(=O)O)cc(-c3ccnc4[nH]ccc34)cc12 [Example 215, 7-(3-Amino-5-(1H-pyrrolo[2,3-b]pyridin-4-yl)-1H-indazol-7-yl)hept-6-ynoic acid]
18 |  |  | 0.007 | 0.461 | Nc1cc(-c2cc(-c3cccc(S(N)(=O)=O)c3)c3[nH]nc(N)c3c2)ccn1 [Example 114, 3-(3-Amino-5-(2-aminopyridin-4-yl)-1H-indazol-7-yl)benzenesulfonamide]
19 | 0.045 | 3.13 |  |  | CC(C)(C)C#Cc1cc(-c2ccnc(NC3CCOC3)c2)cc2c(N)n[nH]c12 (centres unmarked) [Example 322, 7-(3,3-Dimethylbut-1-yn-1-yl)-5-(2-((tetrahydrofuran-3-yl)amino)pyridin-4-yl)-1H-indazol-3-amine]
20 |  |  | 0.026 | 0.316 | Nc1cc(-c2cc(-c3cncs3)c3[nH]nc(N)c3c2)ccn1 [Example 132, 5-(2-Aminopyridin-4-yl)-7-(thiazol-5yl)-1H-indazol-3-amine]
21 |  |  | 0.003 | 0.3 | CC(C)C#Cc1cc(-c2ccnc(N)c2)cc2c(N)n[nH]c12 [Example 134, 5-(2-Aminopyridin-4-yl)-7-(3-methylbut-1-yn-1-yl)-1H-indazol-3-amine]
22 | 0.038 | 0.429 |  |  | COC(=O)Nc1cc(-c2cc(-c3cccc(CN4CCOCC4)c3)c3[nH]nc(N)c3c2)ccn1 [Example 334, Methyl (4-(3-amino-7-(3-(morpholinomethyl)phenyl)-1H-indazol-5-yl)pyridin-2-yl)carbamate]
23 | 0.005 | 0.0185 |  |  | Cn1nnc(Nc2cc(-c3cc(C#CC(C)(C)C)c4[nH]nc(N)c4c3)ccn2)n1 [Example 320, 7-(3,3-Dimethylbut-1-yn-1-yl)-5-(2-((2-methyl-2H-tetrazol-5-yl)amino)pyridin-4-yl)-1H-indazol-3-amine]
24 | 0.009 | 0.044 |  |  | CC(C)(O)CCc1cc(-c2ccnc(NC(=O)C3CC3)c2)cc2c(N)n[nH]c12 [Example 292, N-(4-(3-Amino-7-(3-hydroxy-3-methylbutyl)-1H-indazol-5-yl)pyridin-2-yl)cyclopropanecarboxamide]
25 |  |  | 0.022 | 1.47 | Nc1n[nH]c2ccc(-c3ccnc(NCCCCO)c3)cc12 [Example 22, 4-(4-(3-Amino-1H-indazol-5-yl)pyridin-2-ylamino)butan-1-ol]
26 |  |  | 0.046 | 0.63 | Nc1n[nH]c2ccc(-c3ccnc(NCCO)c3)cc12 [Example 20, 2-((4-(3-Amino-1H-indazol-5-yl)pyridine-2-yl)amino)ethan-1-ol]
27 | 0.009 | 0.104 |  |  | CC(C)N(CCNC(=O)c1cc2c(-c3ccc4[nH]nc(N)c4c3)ccnc2[nH]1)C(C)C [Example 246, 4-(3-Amino-1H-indazol-5-yl)-N-(2-(diisopropylamino)ethyl)-1H-pyrrolo[2,3-b]pyridine-2-carboxamide]
28 | 0.006 | 0.045 |  |  | Nc1n[nH]c2c(-c3ccoc3)cc(-c3ccnc4[nH]ccc34)cc12 [Example 199, 7-(Furan-3-yl)-5-(1H-pyrrolo[2,3-b]pyridin-4-yl)-1H-indazol-3-amine]
29 |  |  | 0.162 | 1.01 | Nc1cc(-c2cc(-c3cccc(C(F)(F)F)c3)c3[nH]nc(N)c3c2)ccn1 [Example 106, 5-(2-Aminopyridin-4-yl)-7-(3-(trifluoromethyl)phenyl)-1H-indazol-3-amine]
30 |  |  | 0.022 | 1.96 | CC(C)(C)C#Cc1cc(-c2ccnc(NCCC#N)c2)cc2c(N)n[nH]c12 [Example 159, 3-((4-(3-Amino-7-(3,3-dimethylbut-1-yn-1-yl)-1H-indazol-5-yl)pyridin-2-yl)amino)propanenitrile]
31 |  |  | 0.065 | 0.46 | Nc1n[nH]c2ccc(-c3ccnc(NCCCO)n3)cc12 [Example 28, 3-((4-(3-Amino-1H-indazol-5-yl)pyrimidin-2-yl)amino)propan-1-ol]
